Like-named read-outs stand apart in the source and are kept apart here. Square brackets hold non-standard residues; d marks the D form. Peptide text beside a SMILES is read from it. * marks the point of attachment. sY = N[C@@H](Cc1ccc(OS(=O)(=O)O)cc1)C(=O)O; Cbz = O=C(OCc1ccccc1)*; Boc = CC(C)(C)OC(=O)*

In test [1] the test system is CCK receptor. As to conditions: prior art CCK antagonists; cited from earlier work.
For test [2], the target named is T1, CCK receptor (Rattus norvegicus, UniProt P30551).
T1 construct: The whole pancreas was dissected free of fat tissue and was homogenized; from tissue; host or cells: rat (Sprague-Dawley) whole pancreas membranes
T1 sequence (P30551 1-444): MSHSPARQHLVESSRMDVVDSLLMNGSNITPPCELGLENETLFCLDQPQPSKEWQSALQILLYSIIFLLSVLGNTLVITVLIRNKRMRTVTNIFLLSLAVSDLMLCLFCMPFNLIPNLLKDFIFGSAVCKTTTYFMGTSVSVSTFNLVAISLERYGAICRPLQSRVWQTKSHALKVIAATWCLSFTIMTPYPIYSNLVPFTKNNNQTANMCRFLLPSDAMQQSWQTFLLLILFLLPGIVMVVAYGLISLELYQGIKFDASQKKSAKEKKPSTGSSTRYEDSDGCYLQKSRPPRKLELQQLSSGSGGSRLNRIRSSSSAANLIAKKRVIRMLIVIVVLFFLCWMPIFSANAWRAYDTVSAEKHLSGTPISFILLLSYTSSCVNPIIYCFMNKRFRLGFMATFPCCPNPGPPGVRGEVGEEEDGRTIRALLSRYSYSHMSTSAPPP
Description: CCK receptor binding (pancreas), inhibition of 125I-CCK-33 binding. Conditions: for effect on the 125I-CCK receptor binding assay: protease inhibitor additives of the assay buffer. The arrangement: species or system rat (Male Sprague-Dawley). The procedure:
1. CCK receptor binding (pancreas)
CCK-33 was radiolabeled with ^125 I-Bolton Hunter reagent (2000 Ci/mmole) as described by Sankara et al. (J. Biol. Chem. 254: 9349-9351, 1979). Receptor binding was performed according to Innis and Snyder (Proc. Natl. Acad. Sci. 77: 6917-6921, 1980) with the minor modification of adding the additional protease inhibitors, phenylmethane sulfonyl fluoride and o-phenanthroline. The latter two compounds have no effect on the ^125 I-CCK receptor binding assay.
Male Sprague-Dawley rats (200-350 g) were sacrificed by decapitation. The whole pancreas was dissected free of fat tissue and was homogenized in 20 volumes of ice-cold 50 mM. Tris HCl (pH 7.7 at 25° C.) with a Brinkmann Polytron PT 10. The homogenates were centrifuged at 48,000 g for 10 min. Pellets were resuspended in Tris Buffer, centrifuged as above and resuspended in 200 volumes of binding assay buffer (50 mM Tris HCl, pH 7.7 at 25° C., 5 mM dithiothrietol, 0.1 mM bacitracin, 1.2 mM phenylmethane sulfonyl fluoride and 0.5 mM o-phenanthroline). […] All assays were run in duplicate or triplicate. The reaction mixtures were incubated at 37° C. for 30 minutes and centrifuged in a Beckman Microfuge (4 minutes) immediately after adding 1 ml of ice-cold incubation buffer. The supernatant was aspirated and discarded, pellets were counted with a Beckman gamma 5000. For Scatchard analysis (Ann. N.Y. Acad. Sci. 51: 660, 1949), ^125 I-CCK-33 was progressively diluted with increasing concentrations of CCK-33.

For test [3], the target named is T2, CCK receptor (Cavia porcellus, UniProt H0VZC5).
T2 construct: Cerebral cortex was dissected and used as a receptor source; from tissue; host or cells: guinea pig (Hartley) cerebral cortex membranes
T2 sequence (H0VZC5 entry or part of it): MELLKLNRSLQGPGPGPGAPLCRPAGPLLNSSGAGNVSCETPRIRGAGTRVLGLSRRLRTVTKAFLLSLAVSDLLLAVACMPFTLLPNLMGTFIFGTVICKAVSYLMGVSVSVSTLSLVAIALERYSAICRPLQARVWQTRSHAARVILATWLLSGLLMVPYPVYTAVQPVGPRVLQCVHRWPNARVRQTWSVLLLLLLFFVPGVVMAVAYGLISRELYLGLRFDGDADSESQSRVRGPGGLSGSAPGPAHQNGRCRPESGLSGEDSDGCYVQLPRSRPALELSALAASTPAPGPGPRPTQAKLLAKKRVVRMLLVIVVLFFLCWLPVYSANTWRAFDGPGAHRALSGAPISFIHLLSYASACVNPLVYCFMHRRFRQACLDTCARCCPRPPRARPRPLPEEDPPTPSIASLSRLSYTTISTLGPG
The experiment in a line: CCK receptor binding (brain), inhibition of 125I-CCK-33 binding. Set-up: species or system guinea pig (Male Hartley). As to conditions: 125I-CCK-33, guinea pig cerebral cortex, 25° C., 2 hours. The procedure:
2. CCK Receptor Binding (Brain)
CCK-33 was radiolabeled and the binding was performed according to the description for the pancreas method with modification according to Saito et al. (J. Neurochem. 37, 483-490, 1981).
Male Hartley guinea pigs (300-500 g) were sacrificed by decapitation and the brains were removed and placed in ice-cold 50 mM. Tris HCl plus 7.58 g/l Trizma-7.4 (pH 7.4 at 25° C.). Cerebral cortex was dissected and used as a receptor source. Each gram of fresh guinea pig brain tissue was homogenized in 10 ml of Tris Trizma buffer with a Brinkman polytron PT-10. The homogenates were centrifuged at 42,000 g for 15 min. […] All assays were run in duplicate or triplicate. The reaction mixtures were incubated at 25° C. for 2 hours and centrifuged in a Beckman Microfuge (4 minutes) immediately after adding 1 ml of ice-cold incubation buffer. The supernatant was aspirated and discarded, pellets were counted with a Beckman gamma 5000.

For a further test, the system named is gastrin receptor. Conditions: cited from earlier work.
[4] abbreviates: 125I-CCK-33, rat pancreas membranes, 37° C., 30 minutes, read-out: IC50 125I-CCK Pancreas.
Setting [5] is: read-out: IC50 125I-CCK Pancreas.

On to `CSCC[C@H](NC(=O)OC(C)(C)C)C(=O)N[C@@H](CC(=O)O)C(=O)N[C@@H](Cc1ccccc1)C(N)=O` [Boc-Met-Asp-Phe-NH2] (Boc-Met-Asp-Phe-NH2), for which, in the test on CCK receptor [1], the CCK antagonist activity entry is “can function as CCK antagonists”.

On to `CSCC[C@H](NC(=O)[C@H](Cc1ccc(OS(=O)(=O)O)cc1)NC(=O)OCc1ccccc1)C(=O)NCC(=O)N[C@@H](Cc1c[nH]c2ccccc12)C(=O)N[C@@H](CCSC)C(=O)N[C@@H](CC(=O)O)C(N)=O` [Cbz-Tyr(SO3 H)-Met-Gly-Trp-Met-Asp-NH2] (Cbz-[sY]MGWMD-NH2), for which the CCK antagonist activity result with CCK receptor [1] is reported as “can function as CCK antagonists”.

On to `Fc1ccccc1C1=N[C@H](Cc2c[nH]c3ccccc23)c2nncn2-c2ccccc21` [Compound 1, 6-(2-Fluorophenyl)-4(R)-4-(3'-indolyl)methyl-4H-s-triazolo[4,3-a]-1,4-benzodiazepine], for which the IC50 at CCK receptor [2] (setting [4]) is 0.2 µM.

Take `Cc1nnc2n1-c1ccccc1C(c1ccccc1F)=N[C@@H]2Cc1c[nH]c2ccccc12` [Compound 2, 6-(2-Fluorophenyl)-4-(R)-4-(3'-indolyl)methyl-1-methyl-4H-s-triazolo[4,3-a]-1,4-benzodiazepine]: the half-inhibitory concentration (IC50) at CCK receptor [3] is 38.6 µM; at CCK receptor [2] (setting [4]), 0.3 µM.

`Fc1ccccc1C1=N[C@H](Cc2c[nH]c3ccccc23)c2nnc(-c3ccccc3)n2-c2ccccc21` [Compound 3, 6-(2-Fluorophenyl)-4(R)-4-(3'-indolyl)methyl-1-phenyl-4H-s-triazolo[4,3-a]-1,4-benzodiazepine]: the IC50 on CCK receptor [2] (setting [5]) worked out at 22 µM.

With `CN(C)Cc1nnc2n1-c1ccccc1C(c1ccccc1F)=N[C@@H]2Cc1c[nH]c2ccccc12` [Compound 4, 6-(2-Fluorophenyl)-4(R)-4-(3'-indolyl)methyl-1-dimethylaminomethyl-4H-s-triazolo[4,3-a]-1,4-benzodiazapine], at CCK receptor [2] (setting [5]), the IC50 is 14 µM.

For `O=c1[nH]nc2n1-c1ccccc1C(c1ccccc1F)=N[C@@H]2Cc1c[nH]c2ccccc12` [Compound 5, 2,4-Dihydro-3(R)-(3'-indolyl)methyl-6-(2-fluorophenyl)-1H-S-triazolo-[4,3-a]-1,4-benzodiazepin-1-one solvate], the IC50 turned out to be 63 µM on CCK receptor [3] and 3.1 µM on CCK receptor [2].

Take `Fc1ccccc1C1=N[C@H](Cc2c[nH]c3ccccc23)c2nnc(C(Cl)(Cl)Cl)n2-c2ccccc21` [Compound 6, 1-Trichloromethyl-4(R)-(3'-indolyl)methyl-6-(2-fluorophenyl)-4H-S-triazolo[4,3-a]-1,4-benzodiazepine solvate]: the IC50 was more than 100 µM at CCK receptor [3] and 25 µM on CCK receptor [2] (setting [4]).

For `O=C(NC1N=C(c2ccccc2F)c2ccccc2-n2cnnc21)OCc1ccccc1` (stereo not drawn) [Compound 7, 6-(2-Fluorophenyl)-4-benzyloxycarbonylamino-4H-s-triazolo[4,3-a]-1,4-benzodiazepine], the results for the IC50 on CCK receptor [3] and on CCK receptor [2] (setting [5]) were 8 µM and 0.22 µM, respectively.

Consider `O=C(NC1N=C(c2ccccc2F)c2ccccc2-n2cnnc21)c1ccc(Cl)cc1` (stereo not drawn) [Compound 8, 6-(2-Fluorophenyl)-4-(4-chlorophenyl)carbonylamino-4H-s-triazolo[4,3-a]-1,4-benzodiazepine], for which the figures for the IC50 on CCK receptor [3] and at CCK receptor [2] (setting [4]) were 9.3 µM and 0.0044 µM, respectively.

Turning to `O=C(NC1N=C(c2ccccc2F)c2ccccc2-n2cnnc21)c1cc2ccccc2[nH]1` (stereo not drawn) [Compound 9, 6-(2-Fluorophenyl)-4-(indol-2-yl)carbonylamino-4H-s-triazolo[4,3-a]-1,4-benzodiazepine], the concentration for half-maximal inhibition (IC50) at CCK receptor [3] was 0.053 µM; at CCK receptor [2] (setting [4]) it was 0.0009 µM.

As to `Cc1nnc2n1-c1ccccc1C(c1ccccc1F)=NC2NC(=O)c1cc2ccccc2[nH]1` (stereo not drawn) [Compound 10, 6-(2-Fluorophenyl)-4-(indol-2-yl)carbonylamino-1-methyl-4H-s-triazolo[4,3-a]-1,4-benzodiazepine], the half-inhibitory concentration (IC50) at CCK receptor [3] turned out to be 0.066 µM; on CCK receptor [2] (setting [4]), 0.0004 µM.

For the compound `CSCC[C@H](N)C(=O)N[C@@H](CC(=O)O)C(=O)N[C@@H](Cc1ccccc1)C(N)=O` [Met-Asp-Phe-NH2] (H-Met-Asp-Phe-NH2), the CCK antagonist activity entry in the test on CCK receptor [1] is “can function as CCK antagonists”.

Consider `CCCC(=O)Nc1nc2c(ncn2[C@@H]2O[C@@H]3COP(=O)(O)O[C@H]3[C@H]2OC(=O)CCC)c(=O)[nH]1` [dibutyryl cyclic GMP], for which the CCK antagonist activity entry in the test on CCK receptor [1] was “most potent”.

Consider `c1cnc2c(c1)ccc1cccnc12` [o-phenanthroline, reference compound], for which the “effect on the 125I-CCK receptor binding assay” value at CCK receptor [2] was “no effect”.

`O=S(=O)(F)Cc1ccccc1` [phenylmethane sulfonyl fluoride, reference compound]: the “effect on the 125I-CCK receptor binding assay” value on CCK receptor [2] was “no effect”.

Consider `CCCN(CCC)C(=O)C(CCC(=O)O)NC(=O)c1ccccc1` (stereo not drawn) [proglumide], for which the “in vitro gastrin antagonism” value with gastrin receptor is given as “Very weak in vitro antagonists”.

(Values after patent US4663321A, “Triazolobenzodiazepines and pharmaceutical use” (Merck & Co., Inc., priority 1985, dated 1987).)
